Laboratory results from patent US20250236789A1, “SECOND NEAR-INFRARED ORGANIC FLUORESCENT PROBE, PREPARATION METHOD AND USE THEREOF” (INNER MONGOLIA UNIVERSITY, priority 2024, published 2025).

Tests used:
[1] = NIR-II fluorescence imaging of aqueous solutions in PE tubes under excitation of white light; type: physicochemical; settings: aqueous solution, 10 μmol·L^−1
Text: Using NIR-II small animal imager, the PE tubes filled with the same concentration of nano-imaging probes were imaged at a test concentration of 10 μmol·L^−1.

[2] = Emission spectrum test in aqueous solution under excitation of white light; type: physicochemical; settings: 10 μmol·L^−1, white light excitation
Method: (3) Emission spectrum test of fluorescent probe coated nanoparticles: The emission spectra of HY6CT-NPs, FY6CT-NPs and CY6CT-NPs in aqueous solution were tested with steady-state transient fluorescence spectrometer, at a test concentration of 10 μmol·L^−1.

NIR-II fluorescence signal under excitation of white light (in words) [1]: could not detect fluorescence signals
emission spectrum under white light (in words) [2]: can hardly be detected
SMILES: CC1(C)C(/C=C/C=C/C=C/C=C2\N(CCCCS(=O)(=O)[O-])c3ccc4ccccc4c3C2(C)C)=[N+](CCCCS(=O)(=O)[O-])c2ccc3ccccc3c21.[Na+] [ICG]
